Measured values published in patent US20230000088A1, “USE OF ALGINATES OLIGOMERS TO IMPROVE PLANT PROTECTION AGAINST PATHOGENS” (Université de Bourgogne, priority 2019, published 2023).

System: P. viticola
Experiment: Protection of greenhouse vine plants against downy mildew (sporulating leaf area, leaf disks, 6 dpi)
Format: in vivo, Plasmopara viticola
Conditions: A1 1 g/L, Pip 0.1 mM, alone or combined, FIG. 5
Procedure: Grapevine (V. vinifera cv. Marselan) herbaceous cuttings were grown in individual pots (10×7×7 cm) containing a mixture of peat and perlite (4:1, vol/vol) in a greenhouse at 25±4 and 18±7° C. (day and night, respectively) until they developed 6-8 leaves. Artificial illumination was supplemented when the natural light was less than 200 μmol. m.^−2 s^−1 during the 16 h light period. Plants were watered with a fertilization solution (Topfert2 Plantin. France).
Alginates A1, A2, A3 with a degree of polymerization (DP) of 491, 228, 355 respectively were used. They were prepared at 1, 2 and 4 g/L in ultrapure water and applied to both the upper and lower faces of leaves until the point of run-off using a manual sprayer. Plants were maintained in the greenhouse in the conditions described above. Ultrapure water was used as negative control and sprayed in the same manner. […]
Briefly, 6 days post-inoculation (dpi), leaf disks were punched out and placed with the abaxial side uppermost, on a moist Whatman paper, in a closed plastic box. […] Disease intensity was assessed by measuring the leaf area covered by the pathogen sporulation using a “macro” developed for the image analysis Visilog 6.9 software (Noesis, France; Kim Khiook et al., 2013) and the disease reduction rate is calculated as follows: (1−(treated sporulating area/control sporulating area))×100. […]

Structure (SMILES): O=C(O)C1CCCCN1 (stereo not shown) [Pip, pipecolic acid]
- rate protection against P. viticola: around 35%
